According to patent US20110053984A1, “NOVEL 4-BENZHYDRYLOXY-TETRAALKYL-PIPERIDINE DERIVATIVES AND THEIR USE AS MONOAMINE NEUROTRANSMITTER RE-UPTAKE INHIBITORS” (NeuroSearch A/S, priority 2008, published 2011):
Counter-ions that a name gives are not always drawn.

What was measured:
[1] = target: T1, serotonine (5-HT) reuptake in synaptosomes (Rattus norvegicus, UniProt P31652); assay: Inhibition of 5-HT reuptake in synaptosomes; type: biochemical; conditions: 3H-5-HT, read-out: 5-HT-uptake IC50
T1 construct: in synaptosomes as described in WO 97/16451; from tissue
T1 sequence (P31652 whole entry): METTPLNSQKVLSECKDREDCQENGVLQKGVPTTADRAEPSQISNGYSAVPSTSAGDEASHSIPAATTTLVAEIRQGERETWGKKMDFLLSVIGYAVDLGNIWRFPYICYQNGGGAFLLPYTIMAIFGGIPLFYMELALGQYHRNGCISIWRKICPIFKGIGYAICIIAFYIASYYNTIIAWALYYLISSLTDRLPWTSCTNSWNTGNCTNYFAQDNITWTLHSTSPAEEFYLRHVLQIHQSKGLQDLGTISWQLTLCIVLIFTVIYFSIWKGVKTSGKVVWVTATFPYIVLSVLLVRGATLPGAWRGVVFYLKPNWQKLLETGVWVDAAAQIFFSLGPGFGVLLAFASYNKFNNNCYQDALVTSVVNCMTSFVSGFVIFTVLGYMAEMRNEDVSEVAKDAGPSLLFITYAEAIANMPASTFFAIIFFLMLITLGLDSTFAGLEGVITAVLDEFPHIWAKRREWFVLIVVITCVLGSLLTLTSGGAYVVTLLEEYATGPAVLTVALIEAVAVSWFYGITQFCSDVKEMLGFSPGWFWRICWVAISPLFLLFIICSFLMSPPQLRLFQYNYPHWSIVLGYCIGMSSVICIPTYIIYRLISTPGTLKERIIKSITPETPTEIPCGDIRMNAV
Description: (§1) Compounds were tested for their ability to inhibit the reuptake of the monoamine neurotransmitters dopamine (DA) noradrenaline (NA) and serotonine (5-HT) in synaptosomes as described in WO 97/16451 (NeuroSearch A/S).
(§2) The test values are given as IC50 (the concentration (μM) of the test substance which inhibits the specific binding of ^3H-DA, ^3H-NA, or ^3H-5-HT by 50%).

[2] = target: T2, dopamine (DA) reuptake in synaptosomes (Rattus norvegicus, UniProt P23977); assay: Inhibition of DA reuptake in synaptosomes; type: biochemical; conditions: 3H-DA, read-out: DA-uptake IC50
T2 construct: in synaptosomes as described in WO 97/16451; from tissue
T2 sequence (P23977 whole entry): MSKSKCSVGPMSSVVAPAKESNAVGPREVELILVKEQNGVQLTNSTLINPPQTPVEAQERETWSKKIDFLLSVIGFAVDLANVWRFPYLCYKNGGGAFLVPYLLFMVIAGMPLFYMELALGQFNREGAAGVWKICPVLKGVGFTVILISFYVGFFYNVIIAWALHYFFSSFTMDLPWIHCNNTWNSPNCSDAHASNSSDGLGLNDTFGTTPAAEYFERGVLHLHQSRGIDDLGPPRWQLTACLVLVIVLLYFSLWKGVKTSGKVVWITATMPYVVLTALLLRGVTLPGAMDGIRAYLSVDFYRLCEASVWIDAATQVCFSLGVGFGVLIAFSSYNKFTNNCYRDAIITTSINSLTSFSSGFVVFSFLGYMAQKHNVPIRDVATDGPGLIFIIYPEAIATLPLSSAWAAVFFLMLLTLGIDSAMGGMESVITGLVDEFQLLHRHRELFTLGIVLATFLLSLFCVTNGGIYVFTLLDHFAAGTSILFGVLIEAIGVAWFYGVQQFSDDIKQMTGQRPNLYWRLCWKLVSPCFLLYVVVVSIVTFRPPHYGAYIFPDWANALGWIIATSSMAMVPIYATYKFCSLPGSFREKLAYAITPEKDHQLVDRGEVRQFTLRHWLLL
Description: as §1, §2

[3] = target: T3, noradrenaline (NA) reuptake in synaptosomes (Rattus norvegicus, UniProt Q63380); assay: Inhibition of NA reuptake in synaptosomes; type: biochemical; conditions: 3H-NA, read-out: NA-uptake IC50
T3 construct: in synaptosomes as described in WO 97/16451; from tissue
T3 sequence (Q63380 1-617): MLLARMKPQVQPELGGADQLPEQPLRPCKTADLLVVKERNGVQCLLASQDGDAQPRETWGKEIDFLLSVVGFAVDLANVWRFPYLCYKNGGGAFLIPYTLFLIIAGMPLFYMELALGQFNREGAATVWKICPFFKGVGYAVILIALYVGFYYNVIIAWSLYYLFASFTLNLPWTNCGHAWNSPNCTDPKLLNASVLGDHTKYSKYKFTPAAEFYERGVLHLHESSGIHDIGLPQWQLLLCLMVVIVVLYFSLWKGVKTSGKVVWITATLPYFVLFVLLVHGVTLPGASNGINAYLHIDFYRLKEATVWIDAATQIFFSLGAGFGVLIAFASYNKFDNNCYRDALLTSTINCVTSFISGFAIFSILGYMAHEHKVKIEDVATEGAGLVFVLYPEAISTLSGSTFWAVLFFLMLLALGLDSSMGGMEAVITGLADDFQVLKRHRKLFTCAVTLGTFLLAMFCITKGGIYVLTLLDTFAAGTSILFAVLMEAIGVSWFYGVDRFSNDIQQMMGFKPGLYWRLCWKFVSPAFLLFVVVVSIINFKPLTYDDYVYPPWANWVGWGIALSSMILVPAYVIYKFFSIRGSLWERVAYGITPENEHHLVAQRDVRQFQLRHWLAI
Description: as §1, §2

melting point [°C]	IC50 [1] [nM]	IC50 [2] [nM]	IC50 [3] [nM]	Compound
184.1 to 185.9	–	–	–	CC1(C)CC(OC(c2ccccc2)c2ccccc2)CC(C)(C)N1 (as salt: hydrochloric acid salt) [4-Benzhydryloxy-2,2,6,6-tetramethyl-piperidine]
–	> 1000	38	590	CC1(C)CC(OC(c2ccc(F)cc2)c2ccc(F)cc2)CC(C)(C)N1 [4-[Bis-(4-fluoro-phenyl)-methoxy]-2,2,6,6-tetramethyl-piperidine]
–	26000	400	60	CC1(C)CC(OC(c2ccccc2)c2ccccc2)CC(C)(C)N1 [4-Benzhydryloxy-2,2,6,6-tetramethyl-piperidine]
242 to 265	–	–	–	CC1(C)CC(OC(c2ccc(F)cc2)c2ccc(F)cc2)CC(C)(C)N1 (as salt: hydrochloric acid salt) [4-[Bis-(4-fluoro-phenyl)-methoxy]-2,2,6,6-tetramethyl-piperidine]
